Assay results taken from US6720424B1, “Aminobenzoic acid derivatives” (Taisho Pharmaceutical Co., Ltd., priority 1999, dated 2004).
Read-outs that look alike come from different tables or passages of the source.

Assays:
Flt-1 = target: T1, Flt-1 (Homo sapiens, UniProt P17948); assay: (125I)-VEGF binding inhibition on NIH3T3 cells in which Flt-1 was forced to be expressed; settings: Flt-1-expressing NIH3T3 cells, (125I)-VEGF 25 pM, 90 minutes; read-out: IC50 (concentration of 50% binding inhibition)
T1 construct: expressed in transfected cells; host or cells: NIH3T3
Method: (§1) According to the method described in a document (Cell Growth & Differentiation, vol. 7, pp. 213-221, 1996), the following tests were carried out.
(§2) NIH3T3 cells in which Flt-1 was forced to be expressed were seeded on a 24-well collagen-coated plate (7×10^4/well), and were cultured in Dulbecco's modified Eagle's medium (DMEM) including 10% bovine serum and 200 μg/ml of Geneticin G418, for 24 hours at 37° C. under an atmosphere of 5% carbon dioxide gas. The cells were preincubated in Buffer A (including 10 mM HEPES (N-2-hydroxyethylpiperazine-N′-2-ethanesulfonic acid) and 0.1% BSA (bovine serum albumin) in DMEM), for 30 minutes at 4° C. Subsequently, the medium was replaced with Buffer B (including 10 mM HEPES and 0.5% BSA in DMEM). A test solution prepared by dissolving each of the test compounds shown in Table 19 in dimethylsulfoxide and subsequently diluting the solution into a prescribed concentration with Buffer B, and (^125I)-VEGF (the final concentration was set to 25 pM) were added thereto. Binding reaction was carried out for 90 minutes at […]. After completion of the reaction, the cells were washed three times with ice-cooled Buffer A. Subsequently, 0.5 ml of 0.5M NaOH were added to each well, and the cells were lysed in 30 minutes at room temperature. The radioactivity of the lysed cells in each well was measured by means of a gamma counter, and a total binding quantity of (^125I)-VEGF was calculated. Nonspecific binding quantity of (^125I)-VEGF was measured by competition assay in the presence of 10 nM non-labeled VEGF. The specific binding quantity of (^125I)-VEGF was calculated from the difference between the total binding quantity of (^125I)-VEGF and nonspecific binding quantity of (^125I)-VEGF.
(§3) The binding inhibition index of the test compounds was calculated by the following equation. [formula]
(§4) From this value, a concentration of 50% binding inhibition (IC50) of the test compound was calculated.

KDR = target: T2, KDR (Homo sapiens, UniProt P35968); assay: (125I)-VEGF binding inhibition on NIH3T3 cells in which KDR was forced to be expressed; settings: KDR-expressing NIH3T3 cells, (125I)-VEGF 25 pM, 90 minutes, read-out: IC50 (concentration of 50% binding inhibition)
T2 construct: expressed in transfected cells; host or cells: NIH3T3
Method: as §1, §2, §3, §4
Test on each of the test compounds shown in Table 20 and Table 21 was carried out employing NIH3T3 cells in which KDR was forced to be expressed, in the same manner as described in Experimental Example 1 described above.

T1 sequence (P17948 27-1338): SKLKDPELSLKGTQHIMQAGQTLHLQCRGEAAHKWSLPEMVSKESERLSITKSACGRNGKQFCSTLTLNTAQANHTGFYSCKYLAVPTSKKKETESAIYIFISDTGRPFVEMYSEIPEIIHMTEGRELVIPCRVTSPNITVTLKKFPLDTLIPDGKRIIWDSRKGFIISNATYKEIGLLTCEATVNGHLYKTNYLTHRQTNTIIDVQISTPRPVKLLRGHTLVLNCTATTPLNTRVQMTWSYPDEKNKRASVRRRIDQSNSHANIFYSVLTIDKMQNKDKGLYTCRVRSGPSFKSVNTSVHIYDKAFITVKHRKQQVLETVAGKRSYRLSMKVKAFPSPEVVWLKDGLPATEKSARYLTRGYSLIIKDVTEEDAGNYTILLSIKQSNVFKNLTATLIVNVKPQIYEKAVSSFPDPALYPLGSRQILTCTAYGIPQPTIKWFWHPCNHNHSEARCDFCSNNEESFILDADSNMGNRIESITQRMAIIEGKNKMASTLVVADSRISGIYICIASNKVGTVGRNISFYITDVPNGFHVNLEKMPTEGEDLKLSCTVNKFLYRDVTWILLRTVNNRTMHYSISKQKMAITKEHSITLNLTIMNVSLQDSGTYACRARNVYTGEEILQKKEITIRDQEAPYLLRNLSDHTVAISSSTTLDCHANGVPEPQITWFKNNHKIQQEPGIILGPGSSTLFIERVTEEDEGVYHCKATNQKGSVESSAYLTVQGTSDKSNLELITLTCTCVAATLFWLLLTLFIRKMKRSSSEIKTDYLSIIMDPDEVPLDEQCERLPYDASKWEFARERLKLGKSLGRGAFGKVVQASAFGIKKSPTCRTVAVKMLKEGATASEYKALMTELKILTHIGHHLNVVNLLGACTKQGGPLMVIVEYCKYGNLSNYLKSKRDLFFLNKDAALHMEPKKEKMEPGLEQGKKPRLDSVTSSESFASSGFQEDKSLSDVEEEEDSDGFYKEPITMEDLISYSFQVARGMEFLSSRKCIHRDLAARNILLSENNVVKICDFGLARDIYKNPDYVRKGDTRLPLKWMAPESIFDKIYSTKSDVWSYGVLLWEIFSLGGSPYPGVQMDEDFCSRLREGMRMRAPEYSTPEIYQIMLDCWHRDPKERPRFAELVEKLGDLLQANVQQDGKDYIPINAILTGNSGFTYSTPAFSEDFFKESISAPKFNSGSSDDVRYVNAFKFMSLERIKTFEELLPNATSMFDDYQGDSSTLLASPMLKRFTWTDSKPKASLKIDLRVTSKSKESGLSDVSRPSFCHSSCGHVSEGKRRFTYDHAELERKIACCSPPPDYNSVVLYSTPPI
T2 sequence (P35968 20-1356): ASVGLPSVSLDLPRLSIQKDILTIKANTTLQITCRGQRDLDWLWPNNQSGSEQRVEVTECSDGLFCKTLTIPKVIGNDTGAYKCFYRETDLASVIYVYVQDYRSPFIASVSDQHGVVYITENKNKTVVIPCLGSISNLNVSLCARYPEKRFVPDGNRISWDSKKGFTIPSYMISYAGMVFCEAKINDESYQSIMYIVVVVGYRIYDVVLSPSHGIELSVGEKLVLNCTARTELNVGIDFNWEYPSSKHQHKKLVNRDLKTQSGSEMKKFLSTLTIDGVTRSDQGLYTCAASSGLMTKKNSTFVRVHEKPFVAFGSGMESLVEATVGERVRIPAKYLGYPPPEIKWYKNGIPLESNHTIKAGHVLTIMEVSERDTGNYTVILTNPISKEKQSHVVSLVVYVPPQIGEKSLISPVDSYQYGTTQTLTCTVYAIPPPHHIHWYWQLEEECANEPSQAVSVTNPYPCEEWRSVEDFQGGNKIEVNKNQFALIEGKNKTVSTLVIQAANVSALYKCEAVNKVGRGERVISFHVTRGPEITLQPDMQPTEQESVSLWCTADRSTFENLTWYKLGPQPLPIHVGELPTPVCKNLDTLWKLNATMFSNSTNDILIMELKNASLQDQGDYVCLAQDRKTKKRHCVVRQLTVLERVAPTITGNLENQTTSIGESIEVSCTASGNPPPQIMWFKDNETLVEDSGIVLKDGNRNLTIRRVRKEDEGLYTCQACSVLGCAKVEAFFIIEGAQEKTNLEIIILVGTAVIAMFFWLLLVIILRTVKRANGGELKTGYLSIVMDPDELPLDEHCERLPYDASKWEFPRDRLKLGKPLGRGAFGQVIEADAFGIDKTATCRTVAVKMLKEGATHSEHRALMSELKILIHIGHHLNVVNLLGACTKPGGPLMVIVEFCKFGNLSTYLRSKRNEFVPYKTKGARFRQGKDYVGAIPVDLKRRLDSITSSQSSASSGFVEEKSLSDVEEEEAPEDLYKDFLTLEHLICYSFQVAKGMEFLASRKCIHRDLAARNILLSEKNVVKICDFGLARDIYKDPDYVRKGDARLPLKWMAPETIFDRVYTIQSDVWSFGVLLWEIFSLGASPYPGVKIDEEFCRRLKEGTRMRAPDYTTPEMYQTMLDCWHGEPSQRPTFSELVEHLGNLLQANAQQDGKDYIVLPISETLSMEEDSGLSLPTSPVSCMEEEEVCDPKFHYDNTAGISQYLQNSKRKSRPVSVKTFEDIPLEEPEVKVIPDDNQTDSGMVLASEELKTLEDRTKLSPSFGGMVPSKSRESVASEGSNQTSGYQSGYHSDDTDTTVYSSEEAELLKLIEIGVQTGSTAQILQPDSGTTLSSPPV

SMILES | IC50 (Flt-1) | melting point | IC50 (KDR; Table 20) | IC50 (KDR; Table 21)
CCCCCCCCCCCCCCCCCCOc1ccc(CCC(=O)Nc2ccc(Oc3ccc(C(=O)O)cc3)c(C(=O)O)c2)cc1 [Compound 27] | 680 nM | 213 to 215 °C | 510 nM | 
CCCCCCCCCCCCCCCCCCOc1ccc(CC(=O)N(C)c2ccc(SC)c(C(=O)O)c2)cc1 [Compound 114] | 420 nM |  |  | 340 nM
CCCCCCCCCCCCCCCCCCOc1ccc(CCC(=O)Nc2ccc(Nc3ccc(C(=O)O)cc3)c(C(=O)O)c2)cc1 [Compound 45] |  | 230 to 235 °C | 760 nM | 
CCCCCCCCCCCCCCCCOc1ccc(OCCCC(=O)Nc2ccc(SC)c(C(=O)O)c2)cc1 [Compound 134] |  | 197 to 202 °C |  | 120 nM
CCCCCCCCCCCCCCOc1ccc(OCCCCCC(=O)Nc2ccc(SC)c(C(=O)O)c2)cc1 [Compound 135] |  | 199 to 202 °C |  | 450 nM
CCCCCCCCCCCCCCCCCCOc1ccc(CCC(=O)N(C)c2ccc(SC)c(C(=O)O)c2)cc1 [Compound 113] | 280 nM | 106 to 108 °C |  | 80 nM
CCCCCCCCCCCCCCCCCCOc1ccc(CCC(=O)Nc2ccc(Oc3cccc(C(=O)O)c3)c(C(=O)O)c2)cc1 [Compound 28] | 710 nM | 201 to 205 °C | 420 nM | 
CCCCCCCCCCCCOc1ccc(OCCCCCCCC(=O)Nc2ccc(SC)c(C(=O)O)c2)cc1 [Compound 136] |  | 193 to 196 °C |  | 400 nM
CCCCCCCCCCCCCCCCCCOc1ccc(CCC(=O)Nc2ccc(SC)c(C(=O)O)c2)cc1OC [Compound 119] |  | 174 to 176 °C |  | 290 nM
CCCCCCCCCCCCCCCCCCOc1ccc(CC(=O)Nc2ccc(SC)c(C(=O)O)c2)cc1 [Compound 116] |  | 200 to 204 °C |  | 160 nM
